# Reference: BigSolDB 2.1
smiles,measurement,setting,value
O=C(NNC(=S)Nc1ccc(Cl)cc1)c1ccncc1,solubility (mole fraction),"in transcutol, 298.15 K",0.0423
same,solubility (mole fraction),"in transcutol, 308.15 K",0.0468
same,solubility (mole fraction),"in transcutol, 318.15 K",0.0514
same,solubility (mole fraction),"in transcutol, 328.15 K",0.0565
same,solubility (mole fraction),"in transcutol, 338.15 K",0.0607
same,solubility (mole fraction),"in water, 298.15 K",5.17e-07
same,solubility (mole fraction),"in water, 308.15 K",5.93e-07
same,solubility (mole fraction),"in water, 318.15 K",7.05e-07
same,solubility (mole fraction),"in water, 328.15 K",8.28e-07
same,solubility (mole fraction),"in water, 338.15 K",9.75e-07
